Test results published in US6518243B1, “Desleucyl glycopeptide antibiotics and methods of making same” (Trustees of Princeton University, priority 1999, dated 2003).

These compounds were tested on E. faecalis (CL 4877) (assay: Zone of inhibition screen, 96 well agar array format). Conditions: zone of inhibition relative to 1 mg/ml p-chlorobiphenylvancomycin.
Type: cell-based
Design: scale not given here
Experimental: The antibacterial activity of each of the compounds against the bacterial strains E. faceium (ATCC 49624), S. epidermidis (ATCC 12228), S. aureus (ATCC 29213), E. faecalis (CL 4877) and E. faecalis (ATCC 292121) was tested. Each of the compounds was screened in a 96 will agar array format.
With `CC1OC(OC2C(Oc3c4cc5cc3Oc3ccc(cc3Cl)C(O)C3NC(=O)C(NC(=O)C5NC(=O)C(CC(N)=O)NC(=O)C(NC(=O)c5cccnc5O)C(O)c5ccc(c(Cl)c5)O4)c4ccc(O)c(c4)-c4c(O)cc(O)cc4C(C(=O)O)NC3=O)OC(CO)C(O)C2O)CC(C)(NCc2ccc(-c3ccc(Cl)cc3)cc2)C1O` (stereo not drawn) [Compound 241] the “zone score, E. faecalis CL 4877” value was 2.
`CC1OC(OC2C(Oc3c4cc5cc3Oc3ccc(cc3Cl)C(O)C3NC(=O)C(NC(=O)C5NC(=O)C(CC(N)=O)NC(=O)C(NC(=O)c5ccccc5O)C(O)c5ccc(c(Cl)c5)O4)c4ccc(O)c(c4)-c4c(O)cc(O)cc4C(C(=O)O)NC3=O)OC(CO)C(O)C2O)CC(C)(NCc2ccc(-c3ccc(Cl)cc3)cc2)C1O` (stereo not drawn) [Compound 315] was tested, and the “zone score, E. faecalis CL 4877” value was 2.

Same assay, conditions: zone of inhibition relative to 1 mg/ml stock solution of p-chlorobiphenylvancomycin
For `CC(=O)NC(C(=O)NC1C(=O)NC(CC(N)=O)C(=O)NC2C(=O)NC3C(=O)NC(C(=O)NC(C(=O)O)c4cc(O)cc(O)c4-c4cc3ccc4O)C(O)c3ccc(c(Cl)c3)Oc3cc2cc(c3OC2OC(CO)C(O)C(O)C2OC2CC(C)(NCc3ccc(-c4ccc(Cl)cc4)cc3)C(O)C(C)O2)Oc2ccc(cc2Cl)C1O)C(C)O` (stereo not drawn) [Compound 125], the “zone score, E. faecalis CL 4877” value was 2.
In the case of `CC(=O)NC(C)C(=O)NC1C(=O)NC(CC(N)=O)C(=O)NC2C(=O)NC3C(=O)NC(C(=O)NC(C(=O)O)c4cc(O)cc(O)c4-c4cc3ccc4O)C(O)c3ccc(c(Cl)c3)Oc3cc2cc(c3OC2OC(CO)C(O)C(O)C2OC2CC(C)(NCc3ccc(-c4ccc(Cl)cc4)cc3)C(O)C(C)O2)Oc2ccc(cc2Cl)C1O` (mixture of isomers) [Compound 174], the “zone score, E. faecalis CL 4877” value is reported as 2.
For `CC1OC(OC2C(Oc3c4cc5cc3Oc3ccc(cc3Cl)C(O)C3NC(=O)C(NC(=O)C5NC(=O)C(CC(N)=O)NC(=O)C(NC(=O)C(O)CN)C(O)c5ccc(c(Cl)c5)O4)c4ccc(O)c(c4)-c4c(O)cc(O)cc4C(C(=O)O)NC3=O)OC(CO)C(O)C2O)CC(C)(NCc2ccc(-c3ccc(Cl)cc3)cc2)C1O` (mixture of isomers) [Compound 60], the “zone score, E. faecalis CL 4877” value was 2.
In the case of `CC(=O)NC(CO)C(=O)NC1C(=O)NC(CC(N)=O)C(=O)NC2C(=O)NC3C(=O)NC(C(=O)NC(C(=O)O)c4cc(O)cc(O)c4-c4cc3ccc4O)C(O)c3ccc(c(Cl)c3)Oc3cc2cc(c3OC2OC(CO)C(O)C(O)C2OC2CC(C)(NCc3ccc(-c4ccc(Cl)cc4)cc3)C(O)C(C)O2)Oc2ccc(cc2Cl)C1O` (mixture of isomers) [Compound 178], the “zone score, E. faecalis CL 4877” value is reported as 2.
For `CC1OC(OC2C(Oc3c4cc5cc3Oc3ccc(cc3Cl)C(O)C3NC(=O)C(NC(=O)C5NC(=O)C(CC(N)=O)NC(=O)C(NC(=O)C(N)Cc5c[nH]cn5)C(O)c5ccc(c(Cl)c5)O4)c4ccc(O)c(c4)-c4c(O)cc(O)cc4C(C(=O)O)NC3=O)OC(CO)C(O)C2O)CC(C)(NCc2ccc(-c3ccc(Cl)cc3)cc2)C1O` (stereo not drawn) [Compound 58], the “zone score, E. faecalis CL 4877” value was 2.
In the case of `CC1OC(OC2C(Oc3c4cc5cc3Oc3ccc(cc3Cl)[C@@H](O)[C@@H](NC(=O)[C@H](O)CCCNC(=N)N)C(=O)N[C@@H](CC(N)=O)C(=O)N[C@H]5C(=O)NC3C(=O)N[C@H](C(=O)N[C@@H](C(=O)O)c5cc(O)cc(O)c5-c5cc3ccc5O)[C@H](O)c3ccc(c(Cl)c3)O4)OC(CO)C(O)C2O)CC(C)(NCc2ccc(-c3ccc(Cl)cc3)cc2)C1O` (stereo partly drawn) [Compound 165], the “zone score, E. faecalis CL 4877” value is reported as 2.
`CC1OC(OC2C(Oc3c4cc5cc3Oc3ccc(cc3Cl)C(O)C3NC(=O)C(NC(=O)C5NC(=O)C(CC(N)=O)NC(=O)C(NC(=O)C(NC(N)=O)NC(N)=O)C(O)c5ccc(c(Cl)c5)O4)c4ccc(O)c(c4)-c4c(O)cc(O)cc4C(C(=O)O)NC3=O)OC(CO)C(O)C2O)CC(C)(NCc2ccc(-c3ccc(Cl)cc3)cc2)C1O` (stereo not drawn) [Compound 126] was tested, and the “zone score, E. faecalis CL 4877” value was 2.
For `Cc1ccc(C(NCCCCC(N)C(=O)NC2C(=O)NC(CC(N)=O)C(=O)NC3C(=O)NC4C(=O)NC(C(=O)NC(C(=O)O)c5cc(O)cc(O)c5-c5cc4ccc5O)C(O)c4ccc(c(Cl)c4)Oc4cc3cc(c4OC3OC(CO)C(O)C(O)C3OC3CC(C)(NCc4ccc(-c5ccc(Cl)cc5)cc4)C(O)C(C)O3)Oc3ccc(cc3Cl)C2O)(c2ccccc2)c2ccccc2)cc1` (stereo not drawn) [Compound 40], the “zone score, E. faecalis CL 4877” value was 2.
In the case of `CC1OC(OC2C(Oc3c4cc5cc3Oc3ccc(cc3Cl)C(O)C(NC(=O)C3CCC(O)N3C(=O)C3CCCN3C(=O)CN)C(=O)NC(CC(N)=O)C(=O)NC5C(=O)NC3C(=O)NC(C(=O)NC(C(=O)O)c5cc(O)cc(O)c5-c5cc3ccc5O)C(O)c3ccc(c(Cl)c3)O4)OC(CO)C(O)C2O)CC(C)(NCc2ccc(-c3ccc(Cl)cc3)cc2)C1O` (stereo not drawn) [Compound 69], the “zone score, E. faecalis CL 4877” value is reported as 2.
For `CC1OC(OC2C(Oc3c4cc5cc3Oc3ccc(cc3Cl)C(O)C3NC(=O)C(NC(=O)C5NC(=O)C(CC(N)=O)NC(=O)C(NC(=O)C5CC(=O)N5)C(O)c5ccc(c(Cl)c5)O4)c4ccc(O)c(c4)-c4c(O)cc(O)cc4C(C(=O)O)NC3=O)OC(CO)C(O)C2O)CC(C)(NCc2ccc(-c3ccc(Cl)cc3)cc2)C1O` (stereo not drawn) [Compound 96], the “zone score, E. faecalis CL 4877” value was 2.
`CC1OC(OC2C(Oc3c4cc5cc3Oc3ccc(cc3Cl)C(O)C(NC(=O)C3(O)CC(O)C(O)C(O)C3)C(=O)NC(CC(N)=O)C(=O)NC5C(=O)NC3C(=O)NC(C(=O)NC(C(=O)O)c5cc(O)cc(O)c5-c5cc3ccc5O)C(O)c3ccc(c(Cl)c3)O4)OC(CO)C(O)C2O)CC(C)(NCc2ccc(-c3ccc(Cl)cc3)cc2)C1O` (stereo not drawn) [Compound 146] was tested, and the “zone score, E. faecalis CL 4877” value was 2.
In the case of `CC(C)C(NC(=O)CN)C(=O)NC1C(=O)NC(CC(N)=O)C(=O)NC2C(=O)NC3C(=O)NC(C(=O)NC(C(=O)O)c4cc(O)cc(O)c4-c4cc3ccc4O)C(O)c3ccc(c(Cl)c3)Oc3cc2cc(c3OC2OC(CO)C(O)C(O)C2OC2CC(C)(NCc3ccc(-c4ccc(Cl)cc4)cc3)C(O)C(C)O2)Oc2ccc(cc2Cl)C1O` (stereo not drawn) [Compound 70], the “zone score, E. faecalis CL 4877” value is reported as 2.
With `CC1OC(OC2C(Oc3c4cc5cc3Oc3ccc(cc3Cl)C(O)C(NC(=O)C3OC(O)C(O)C(O)C3O)C(=O)NC(CC(N)=O)C(=O)NC5C(=O)NC3C(=O)NC(C(=O)NC(C(=O)O)c5cc(O)cc(O)c5-c5cc3ccc5O)C(O)c3ccc(c(Cl)c3)O4)OC(CO)C(O)C2O)CC(C)(NCc2ccc(-c3ccc(Cl)cc3)cc2)C1O` (mixture of isomers) [Compound 147] the “zone score, E. faecalis CL 4877” value was 2.
In the case of `CC1OC(OC2C(Oc3c4cc5cc3Oc3ccc(cc3Cl)C(O)C3NC(=O)C(NC(=O)C5NC(=O)C(CC(N)=O)NC(=O)C(NC(=O)C=O)C(O)c5ccc(c(Cl)c5)O4)c4ccc(O)c(c4)-c4c(O)cc(O)cc4C(C(=O)O)NC3=O)OC(CO)C(O)C2O)CC(C)(NCc2ccc(-c3ccc(Cl)cc3)cc2)C1O` (stereo not drawn) [Compound 159], the “zone score, E. faecalis CL 4877” value is reported as 2.
`CC1OC(OC2C(Oc3c4cc5cc3Oc3ccc(cc3Cl)C(O)C3NC(=O)C(NC(=O)C5NC(=O)C(CC(N)=O)NC(=O)C(NC(=O)CN(C)C(=N)N)C(O)c5ccc(c(Cl)c5)O4)c4ccc(O)c(c4)-c4c(O)cc(O)cc4C(C(=O)O)NC3=O)OC(CO)C(O)C2O)CC(C)(NCc2ccc(-c3ccc(Cl)cc3)cc2)C1O` (stereo not drawn) [Compound 145] was tested, and the “zone score, E. faecalis CL 4877” value was 2.
For `CC1OC(OC2C(Oc3c4cc5cc3Oc3ccc(cc3Cl)C(O)C3NC(=O)C(NC(=O)C5NC(=O)C(CC(N)=O)NC(=O)C(NC(=O)C(O)CO)C(O)c5ccc(c(Cl)c5)O4)c4ccc(O)c(c4)-c4c(O)cc(O)cc4C(C(=O)O)NC3=O)OC(CO)C(O)C2O)CC(C)(NCc2ccc(-c3ccc(Cl)cc3)cc2)C1O` (mixture of isomers) [Compound 152], the “zone score, E. faecalis CL 4877” value was 2.
With `CC1OC(OC2C(Oc3c4cc5cc3Oc3ccc(cc3Cl)[C@@H](O)[C@@H](NC(=O)[C@@H]3CCC(=O)N3)C(=O)N[C@@H](CC(N)=O)C(=O)N[C@H]5C(=O)NC3C(=O)N[C@H](C(=O)N[C@@H](C(=O)O)c5cc(O)cc(O)c5-c5cc3ccc5O)[C@H](O)c3ccc(c(Cl)c3)O4)OC(CO)C(O)C2O)CC(C)(NCc2ccc(-c3ccc(Cl)cc3)cc2)C1O` (stereo partly drawn) [Compound 169] the “zone score, E. faecalis CL 4877” value was 2.
For `COc1ccc(C(SC[C@H](N)C(=O)N[C@H]2C(=O)N[C@@H](CC(N)=O)C(=O)N[C@H]3C(=O)N[C@H]4C(=O)N[C@H](C(=O)N[C@@H](C(=O)O)c5cc(O)cc(O)c5-c5cc4ccc5O)[C@H](O)c4ccc(c(Cl)c4)Oc4cc3cc(c4O[C@@H]3O[C@H](CO)[C@@H](O)[C@H](O)[C@H]3O[C@@H]3C[C@@](C)(NCc4ccc(-c5ccc(Cl)cc5)cc4)[C@@H](O)[C@@H](C)O3)Oc3ccc(cc3Cl)[C@H]2O)(c2ccccc2)c2ccccc2)cc1` [Compound 6], the “zone score, E. faecalis CL 4877” value was 2.
`CC1OC(OC2C(Oc3c4cc5cc3Oc3ccc(cc3Cl)C(O)C(NC(=O)C(O)C3OC(=O)C(O)C3O)C(=O)NC(CC(N)=O)C(=O)NC5C(=O)NC3C(=O)NC(C(=O)NC(C(=O)O)c5cc(O)cc(O)c5-c5cc3ccc5O)C(O)c3ccc(c(Cl)c3)O4)OC(CO)C(O)C2O)CC(C)(NCc2ccc(-c3ccc(Cl)cc3)cc2)C1O` (stereo not drawn) [Compound 155] was tested, and the “zone score, E. faecalis CL 4877” value was 2.
`C=CCOC(=O)NCC(N)C(=O)NC1C(=O)NC(CC(N)=O)C(=O)NC2C(=O)NC3C(=O)NC(C(=O)NC(C(=O)O)c4cc(O)cc(O)c4-c4cc3ccc4O)C(O)c3ccc(c(Cl)c3)Oc3cc2cc(c3OC2OC(CO)C(O)C(O)C2OC2CC(C)(NCc3ccc(-c4ccc(Cl)cc4)cc3)C(O)C(C)O2)Oc2ccc(cc2Cl)C1O` (stereo not drawn) [Compound 92] was tested, and the “zone score, E. faecalis CL 4877” value was 2.
`CC1OC(OC2C(Oc3c4cc5cc3Oc3ccc(cc3Cl)C(O)C3NC(=O)C(NC(=O)C5NC(=O)C(CC(N)=O)NC(=O)C(NC(=O)C(N)Cc5c[nH]cn5)C(O)c5ccc(c(Cl)c5)O4)c4ccc(O)c(c4)-c4c(O)cc(O)cc4C(C(=O)O)NC3=O)OC(CO)C(O)C2O)CC(C)(NCc2ccc(-c3ccc(Cl)cc3)cc2)C1O` (stereo not drawn) [Compound 71] was tested, and the “zone score, E. faecalis CL 4877” value was 2.
With `CC1OC(OC2C(Oc3c4cc5cc3Oc3ccc(cc3Cl)C(O)C(NC(=O)C3OC(O)C(O)C(O)C3O)C(=O)NC(CC(N)=O)C(=O)NC5C(=O)NC3C(=O)NC(C(=O)NC(C(=O)O)c5cc(O)cc(O)c5-c5cc3ccc5O)C(O)c3ccc(c(Cl)c3)O4)OC(CO)C(O)C2O)CC(C)(NCc2ccc(-c3ccc(Cl)cc3)cc2)C1O` (mixture of isomers) [Compound 148] the “zone score, E. faecalis CL 4877” value was 2.
